Literature values in US20230364026A1, “[…] NANOPARTICLE FORMULATIONS OF CANNABINOIDS AND C[…] WITH REDUCED OSTWALD RIPENING FOR ORAL, INHALATION, NASAL AND […] DELIVERY” (Luminus Biosciences, Inc., priority 2020, published 2023).

How the values were obtained:
[1] = pH values ranging from 1.2 to 7.0
[2] = administered orally, human gastrointestinal tract
[3] = self-experiment, compared to THC

SMILES | solubility in water [1] | oral absorption [2] | duration of effects in humans [3] [h]
CCCCCCC(C)(C)c1cc(O)c2c(c1)OC(C)(C)C1CCC(=O)CC21 (racemic) [Nabilone, (±)-trans-3-(1,1-dimethylheptyl)-6,6a,7,8,10,10a-hexahydro-1-hydroxy-6-6-dimethyl-9H-dibenzo[b,d] pyran-9-one] | less than 0.5 mg/L | completely absorbed | 
CCCCCCCC(C)(C)c1ccc([C@H]2CCC[C@@H](O)C2)c(O)c1 [CP 47,497-C8] |  |  | 5 to 6
CCCCCn1cc(C(=O)c2cccc3ccccc23)c2ccccc21 [JWH-018] |  |  | 1 to 2
